Measurements from PubChem BioAssay AID1963961 (Molecular Pharmacology Branch, DTP, NCI, 2024).

Tested on: K98450-129-R-PDC multicell spheroids, viability
Assay: Anticancer human tumor K98450-129-R-PDC patient-derived colon adenocarcinoma cell line growth inhibition [PI3K]
Conditions: for viability, T/C: stronger effect = lower value; active = viability on the fitted dose curve at most 10% of control; inactive = the rest
Outline: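 We assembled tumor spheroids that included a stromal compartment of HUVEC and MSCs, then exposed them to targeted agents alone and together with PI3K pathway inhibitors. Concentration series descended by half-log from clinically achievable Cmax levels. Viability served as the endpoint.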

[1] = curve of first compound, second compound 0.0316 µM
[2] = curve of first compound, second compound 0.1 µM
[3] = curve of first compound, second compound 0.316 µM
[4] = curve of first compound, second compound 1 µM
[5] = second compound 0.0316 µM, first compound 0.00316 µM
[6] = second compound 0.0316 µM, first compound 0.01 µM
[7] = second compound 0.0316 µM, first compound 0.0316 µM
[8] = second compound 0.0316 µM, first compound 0.1 µM
[9] = second compound 0.0316 µM, first compound 0.316 µM
[10] = second compound 0.0316 µM, first compound 1 µM
[11] = second compound 0.1 µM, first compound 0.00316 µM
[12] = second compound 0.1 µM, first compound 0.01 µM
[13] = second compound 0.1 µM, first compound 0.0316 µM
[14] = second compound 0.1 µM, first compound 0.1 µM
[15] = second compound 0.1 µM, first compound 0.316 µM
[16] = second compound 0.1 µM, first compound 1 µM
[17] = second compound 0.316 µM, first compound 0.00316 µM
[18] = second compound 0.316 µM, first compound 0.01 µM
[19] = second compound 0.316 µM, first compound 0.0316 µM
[20] = second compound 0.316 µM, first compound 0.1 µM
[21] = second compound 0.316 µM, first compound 0.316 µM
[22] = second compound 0.316 µM, first compound 1 µM
[23] = second compound 1 µM, first compound 0.00316 µM
[24] = second compound 1 µM, first compound 0.01 µM
[25] = second compound 1 µM, first compound 0.0316 µM
[26] = second compound 1 µM, first compound 0.1 µM
[27] = second compound 1 µM, first compound 0.316 µM
[28] = second compound 1 µM, first compound 1 µM
[29] = curve of first compound, second compound 0.00316 µM
[30] = curve of first compound, second compound 0.01 µM
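Note: spheroids exposed to agents for seven days before read-out.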

CCN1CCN(Cc2ccc(Nc3ncc(F)c(-c4cc(F)c5nc(C)n(C(C)C)c5c4)n3)nc2)CC1 + CC(Nc1ncnc2nc[nH]c12)c1cc2cccc(Cl)c2c(=O)n1-c1ccccc1
inactive: viability, T/C [5] 111% | viability, T/C [6] 102% | viability, T/C [7] 109% | viability, T/C [8] 83.5% | viability, T/C [9] 81.6% | viability, T/C [10] 87% | viability, T/C [11] 106% | viability, T/C [12] 107% | viability, T/C [13] 91.9% | viability, T/C [14] 87.7% | viability, T/C [15] 87% | viability, T/C [16] 95% | viability, T/C [17] 101% | viability, T/C [18] 108% | viability, T/C [19] 94.6% | viability, T/C [20] 90.3% | viability, T/C [21] 89.7% | viability, T/C [22] 89.1% | viability, T/C [23] 93.1% | viability, T/C [24] 92.5% | viability, T/C [25] 95.9% | viability, T/C [26] 89.4% | viability, T/C [27] 84.8% | viability, T/C [28] 102% | viability, T/C (second compound 3.16 µM, first compound 0.00316 µM) 95.1% | viability, T/C (second compound 3.16 µM, first compound 0.01 µM) 91.6% | viability, T/C (second compound 3.16 µM, first compound 0.0316 µM) 81.1% | viability, T/C (second compound 3.16 µM, first compound 0.1 µM) 90.8% | viability, T/C (second compound 3.16 µM, first compound 0.316 µM) 82.4% | viability, T/C (second compound 3.16 µM, first compound 1 µM) 83.2% | viability, T/C (second compound 10 µM, first compound 0.00316 µM) 86% | viability, T/C (second compound 10 µM, first compound 0.01 µM) 83.5% | viability, T/C (second compound 10 µM, first compound 0.0316 µM) 81.9% | viability, T/C (second compound 10 µM, first compound 0.1 µM) 82.5% | viability, T/C (second compound 10 µM, first compound 0.316 µM) 86.1% | viability, T/C (second compound 10 µM, first compound 1 µM) 78.2%
> 1000 nM: IC50 [1] | IC50 [2] | IC50 [3] | IC50 [4] | IC50 (curve of first compound, second compound 3.16 µM) | IC50 (curve of first compound, second compound 10 µM)

Cn1cnc2c(F)c(Nc3ccc(Br)cc3Cl)c(C(=O)NOCCO)cc21
inactive: viability, T/C (compound 0.00949 µM) 92.8% [middle of 4 runs] | viability, T/C (compound 0.03 µM) 89.9% [middle of 4 runs] | viability, T/C (compound 0.0949 µM) 93.2% [middle of 4 runs] | viability, T/C (compound 0.3 µM) 83% [middle of 4 runs] | viability, T/C (compound 0.949 µM) 52.5% [middle of 4 runs] | viability, T/C (compound 3 µM) 22% [middle of 4 runs]
1.07 µM [middle of 4 runs]: IC50 (curve of compound)

CCN1CCN(Cc2ccc(Nc3ncc(F)c(-c4cc(F)c5nc(C)n(C(C)C)c5c4)n3)nc2)CC1 + CC(Nc1ccc2c(c1)OCCn1cc(N3C(=O)OCC3C(F)F)nc1-2)C(N)=O
inactive: viability, T/C (second compound 0.00316 µM, first compound 0.00316 µM) 105% | viability, T/C (second compound 0.00316 µM, first compound 0.01 µM) 92.2% | viability, T/C (second compound 0.00316 µM, first compound 0.0316 µM) 104% | viability, T/C (second compound 0.00316 µM, first compound 0.1 µM) 90.3% | viability, T/C (second compound 0.00316 µM, first compound 0.316 µM) 81% | viability, T/C (second compound 0.00316 µM, first compound 1 µM) 82.9% | viability, T/C (second compound 0.01 µM, first compound 0.00316 µM) 117% | viability, T/C (second compound 0.01 µM, first compound 0.01 µM) 90.5% | viability, T/C (second compound 0.01 µM, first compound 0.0316 µM) 98.7% | viability, T/C (second compound 0.01 µM, first compound 0.1 µM) 92.3% | viability, T/C (second compound 0.01 µM, first compound 0.316 µM) 84.9% | viability, T/C (second compound 0.01 µM, first compound 1 µM) 86.9% | viability, T/C [5] 109% | viability, T/C [6] 100% | viability, T/C [7] 93.8% | viability, T/C [8] 89.9% | viability, T/C [9] 94.5% | viability, T/C [10] 92.6% | viability, T/C [11] 92.9% | viability, T/C [12] 96.8% | viability, T/C [13] 97.4% | viability, T/C [14] 85.5% | viability, T/C [15] 83.7% | viability, T/C [16] 82.8% | viability, T/C [17] 90.6% | viability, T/C [18] 98.3% | viability, T/C [19] 95.7% | viability, T/C [20] 86.5% | viability, T/C [21] 85.4% | viability, T/C [22] 79.3% | viability, T/C [23] 90.5% | viability, T/C [24] 88% | viability, T/C [25] 86.8% | viability, T/C [26] 82.3% | viability, T/C [27] 83.9% | viability, T/C [28] 81.6%
> 1000 nM: IC50 [29] | IC50 [30] | IC50 [1] | IC50 [2] | IC50 [3] | IC50 [4]

Cn1cnc2c(F)c(Nc3ccc(Br)cc3Cl)c(C(=O)NOCCO)cc21 + COc1c(OCCCN2CCOCC2)ccc2c3n(c(=NC(=O)c4cnc(N)nc4)nc12)CCN3
< 9.49 nM: IC50 [4]
303 nM: IC50 [2]
1000 nM: IC50 [30]
inactive: viability, T/C (second compound 0.00316 µM, first compound 0.00949 µM) 98.5% | viability, T/C (second compound 0.00316 µM, first compound 0.03 µM) 77.5% | viability, T/C (second compound 0.00316 µM, first compound 0.0949 µM) 76.3% | viability, T/C (second compound 0.00316 µM, first compound 0.3 µM) 68.8% | viability, T/C (second compound 0.00316 µM, first compound 0.949 µM) 41.5% | viability, T/C (second compound 0.00316 µM, first compound 3 µM) 21.3% | viability, T/C (second compound 0.01 µM, first compound 0.00949 µM) 94.7% | viability, T/C (second compound 0.01 µM, first compound 0.03 µM) 77.9% | viability, T/C (second compound 0.01 µM, first compound 0.0949 µM) 74.6% | viability, T/C (second compound 0.01 µM, first compound 0.3 µM) 65.5% | viability, T/C (second compound 0.01 µM, first compound 0.949 µM) 58.9% | viability, T/C (second compound 0.01 µM, first compound 3 µM) 18.2% | viability, T/C (second compound 0.0316 µM, first compound 0.00949 µM) 91.6% | viability, T/C (second compound 0.0316 µM, first compound 0.03 µM) 86.1% | viability, T/C (second compound 0.0316 µM, first compound 0.0949 µM) 66% | viability, T/C (second compound 0.0316 µM, first compound 0.3 µM) 50.2% | viability, T/C (second compound 0.0316 µM, first compound 0.949 µM) 37.7% | viability, T/C (second compound 0.0316 µM, first compound 3 µM) 14.7% | viability, T/C (second compound 0.1 µM, first compound 0.00949 µM) 87.4% | viability, T/C (second compound 0.1 µM, first compound 0.03 µM) 71.4% | viability, T/C (second compound 0.1 µM, first compound 0.0949 µM) 71.8% | viability, T/C (second compound 0.1 µM, first compound 0.3 µM) 49.9% | viability, T/C (second compound 0.1 µM, first compound 0.949 µM) 26.7% | viability, T/C (second compound 0.316 µM, first compound 0.00949 µM) 56.4% | viability, T/C (second compound 0.316 µM, first compound 0.03 µM) 49.9% | viability, T/C (second compound 0.316 µM, first compound 0.0949 µM) 47.8% | viability, T/C (second compound 0.316 µM, first compound 0.3 µM) 39.2% | viability, T/C (second compound 0.316 µM, first compound 0.949 µM) 11.4% | viability, T/C (second compound 1 µM, first compound 0.00949 µM) 45.9% | viability, T/C (second compound 1 µM, first compound 0.03 µM) 37.8% | viability, T/C (second compound 1 µM, first compound 0.0949 µM) 29.8% | viability, T/C (second compound 1 µM, first compound 0.3 µM) 22.6% | viability, T/C (second compound 1 µM, first compound 0.949 µM) 9.08%
active: viability, T/C (second compound 0.1 µM, first compound 3 µM) 5.26% | viability, T/C (second compound 0.316 µM, first compound 3 µM) 6.72% | viability, T/C (second compound 1 µM, first compound 3 µM) 4.95%
102 nM: IC50 [3]
351 nM: IC50 [1]
663 nM: IC50 [29]
